Consider 23 compounds from patent US20230089247A1, “NOVEL COMPOUNDS SUITABLE FOR THE TREATMENT OF DYSLIPIDEMIA” (ZYDUS LIFESCIENCES LIMITED, priority 2019, published 2023).

For the assay, the target named is PCSK9 (Homo sapiens, UniProt Q8NBP7). Nature of the assay: BODIPY-LDL uptake assay in HepG2 cells. The class given is cell-based. As to conditions: 5 μg/ml PCSK9, BODIPY-LDL. The procedure:
BODIPY-LDL Uptake Assay in HepG2 Cells.
An established assay for PCSK9 inhibition features uptake of fluorescently labeled LDL nanoparticles (BODIPY-LDL) by hepatocytes and uptake of the BODIPY-containing particles is maximized in the absence of PCSK9.
In the LDL uptake assay, HepG2 cells were seeded at a density of 6×10^4 cells/well in a 96-well plate. After 24 h, the test compounds at various concentrations were pre-incubated with 5 μg/ml PCSK9 in 0.2% DMSO for 60 min prior to the addition on to the cells. After 16 h the medium was removed and 1 μg/ml BODIPY-LDL (Invitrogen) in serum free media was added and incubated for 5 h. Then the cells were washed twice with 0.25% BSA in PBS. Then the fluorescence of the cells in PBS was measured using TECAN multimode reader (Excitation: 485 nm and Emission: 520 nm). The readings were taken in triplicate and the final values were normalized with the protein concentration from respective wells. The wells without test compound containing external PCSK9 is considered as zero uptake and the one without PCSK9 was considered as 100% uptake. The percentage increase in LDL uptake for the test compounds were calculated using these values.

PCSK9, sequence (Q8NBP7 153-692): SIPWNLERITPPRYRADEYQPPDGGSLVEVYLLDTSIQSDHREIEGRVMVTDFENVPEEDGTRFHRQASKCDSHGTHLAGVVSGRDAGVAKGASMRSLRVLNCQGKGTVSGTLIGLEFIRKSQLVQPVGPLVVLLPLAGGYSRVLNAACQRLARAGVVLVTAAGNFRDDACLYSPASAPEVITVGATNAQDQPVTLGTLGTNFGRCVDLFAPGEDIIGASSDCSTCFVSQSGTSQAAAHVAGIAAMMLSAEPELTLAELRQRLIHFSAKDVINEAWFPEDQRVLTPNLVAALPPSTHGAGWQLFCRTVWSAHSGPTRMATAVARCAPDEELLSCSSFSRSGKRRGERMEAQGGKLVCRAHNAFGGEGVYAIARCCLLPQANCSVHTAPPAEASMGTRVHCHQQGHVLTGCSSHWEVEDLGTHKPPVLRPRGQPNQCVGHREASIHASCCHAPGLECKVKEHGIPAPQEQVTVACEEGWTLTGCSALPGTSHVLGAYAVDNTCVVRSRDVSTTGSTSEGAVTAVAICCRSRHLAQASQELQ

As to `O=C(c1cccc(C2(O)COC2)c1)N1CCC(c2ccc(C(F)(F)F)c(F)c2)CC1` [Example 121, (4-(3-fluoro-4-(trifluoromethyl)phenyl)piperidin-1-yl)(3-(3-hydroxyoxetan-3-yl)phenyl)methanone], the “% increase in LDL Uptake” value runs as follows: (1 μM test compound) 0%; (10 μM test compound) 22%; (30 μM test compound) 18%.
With `CN1CCN(c2cc(NC(=O)C3CCN(c4ccc(C(F)(F)F)cc4)CC3)cc(C3(O)COC3)c2)CC1` [Example 201, N-(3-(3-hydroxyoxetan-3-yl)-5-(4-methylpiperazin-1-yl)phenyl)-1-(4-(trifluoromethyl)phenyl)piperidine-4-carboxamide], the “% increase in LDL Uptake” value by setting is: (1 μM test compound) 0%; (10 μM test compound) 0%; (30 μM test compound) 73%.
Turning to `CCOC1(c2ccc(C(=O)N3CC4CN(c5ccc(C(F)(F)F)cc5)CC4C3)cc2)CSC1` (stereo not drawn) [Example 150, (4-(3-ethoxythietan-3-yl)phenyl)(5-(4-(trifluoromethyl)phenyl)hexahydropyrrolo[3,4-c]pyrrol-2(1H)-yl)methanone], the “% increase in LDL Uptake” value was 0% (1 μM test compound), 5% (10 μM test compound) and 25% (30 μM test compound).
With `O=C(O)COC1(c2ccc(C(=O)N3CC4CN(c5ccc(C(F)(F)F)cc5)CC4C3)cc2)COC1` (stereo not drawn) [Example 13, 2-((3-(4-(5-(4-(trifluoromethyl)phenyl)octahydropyrrolo[3,4-c]pyrrole-2-carbonyl)phenyl)oxetan-3-yl)oxy)acetic acid], the “% increase in LDL Uptake” value was 29% (1 μM test compound), 43% (10 μM test compound) and 33% (30 μM test compound).
Turning to `CC(C)OC1(c2ccc(C(=O)N3CC4CN(c5ccc(C(F)(F)F)cc5)CC4C3)cc2)COC1` (stereo not drawn) [Example 136, (4-(3-isopropoxyoxetan-3-yl)phenyl)(5-(4-(trifluoromethyl)phenyl)hexahydropyrrolo[3,4-c]pyrrol-2(1H)-yl)methanone], the “% increase in LDL Uptake” value worked out at 11% (1 μM test compound), 12% (10 μM test compound) and 14% (30 μM test compound).
The like results for `CSc1ccc(C2=CC3CN(C(=O)c4ccc(C5(O)COC5)cc4)CC3C2)cc1` (stereo not drawn) [Example 131] were, in that order, −5%, 57% and −1%.
The like results for `CC(C)(C)OC(=O)N1CCC(O)(c2ccc(C(=O)N3CCC(c4ccc(C(F)(F)F)cc4)CC3)cc2)C1` (stereo not drawn) [Example 151, tert-butyl 3-hydroxy-3-(4-(4-(4-(trifluoromethyl)phenyl)piperidine-1-carbonyl)phenyl)pyrrolidine-1-carboxylate] were, in that order, 34%, 0% and 0%.
Consider `COC(=O)c1ccc(C2(O)CC3CN(C(=O)c4ccc(C5(O)COC5)cc4)CC3C2)cc1` (stereo not drawn) [Example 198, Methyl 4-(5-hydroxy-2-(4-(3-hydroxyoxetan-3-yl)benzoyl)octahydrocyclopenta[c]pyrrol-5-yl)benzoate], for which the “% increase in LDL Uptake” value (1 μM test compound) is −8%, the “% increase in LDL Uptake” value (10 μM test compound) amounted to 25% and the “% increase in LDL Uptake” value (30 μM test compound) worked out at 3%.
As to `CCS(=O)(=O)CCOC1(c2ccc(C(=O)N3CCC(c4ccc(C(F)(F)F)cc4)CC3)cc2)COC1` [Example 190, (4-(3-(2-(ethylsulfonyl)ethoxy)oxetan-3-yl)phenyl)(4-(4-(trifluoromethyl)phenyl)piperidin-1-yl)methanone], the “% increase in LDL Uptake” value (1 μM test compound) is 0%, the “% increase in LDL Uptake” value (10 μM test compound) was 90% and the “% increase in LDL Uptake” value (30 μM test compound) is reported as 62%.
On to `OC1(c2ccc(-c3nc(-c4ccc(C(F)(F)F)c(F)c4)no3)cc2)COC1` [Example 16, 3-(4-(3-(3-fluoro-4-(trifluoromethyl)phenyl)-1,2,4-oxadiazol-5-yl)phenyl) oxetan-3-ol], for which the “% increase in LDL Uptake” value (1 μM test compound) was found to be 38%, the “% increase in LDL Uptake” value (10 μM test compound) was 22% and the “% increase in LDL Uptake” value (30 μM test compound) is 19%.
As for `O=C(c1ccc(C2(O)COC2)cc1)N1CCC(c2ccccc2C(F)(F)F)CC1` [Example 33, (4-(3-hydroxyoxetan-3-yl)phenyl)(4-(2-(trifluoromethyl)phenyl)piperidin-1-yl)methanone], the “% increase in LDL Uptake” value (1 μM test compound) is recorded as 59%, the “% increase in LDL Uptake” value (10 μM test compound) was determined as 73% and the “% increase in LDL Uptake” value (30 μM test compound) is on record as 69%.
The corresponding values for `COC1(c2ccc(C(=O)N3CC4=C(C3)CN(c3ccc(C(F)(F)F)cc3)C4)cc2)COC1` [Example 202, (4-(3-methoxyoxetan-3-yl)phenyl)(5-(4-(trifluoromethyl)phenyl)-3,4,5,6-tetrahydropyrrolo[3,4-c]pyrrol-2(1H)-yl)methanone] are 16%, 0% and 36%.
The like results for `CC(C)OC1(c2ccc(C(=O)N3CCC(c4ccc(C(F)(F)F)cc4)CC3)cc2)COC1` [Example 44, (4-(3-isopropoxyoxetan-3-yl)phenyl)(4-(4-(trifluoromethyl)phenyl)piperidin-1-yl)methanone] were, in that order, 31%, 56% and 77%.
As to `O=C(c1ccc(C2(O)COC2)cc1)N1CCC(c2ccc(C(F)(F)F)c(Cl)c2)CC1` [Example 32, (4-(3-chloro-4-(trifluoromethyl)phenyl)piperidin-1-yl)(4-(3-hydroxyoxetan-3-yl)phenyl)methanone], the “% increase in LDL Uptake” value runs as follows: (1 μM test compound) 12%; (10 μM test compound) 30%; (30 μM test compound) 33%.
The like results for `CC(C)COC1(c2ccc(C(=O)N3CC4CN(c5ccc(C(F)(F)F)cc5)CC4C3)cc2)COC1` (stereo not drawn) [Example 135, (4-(3-isobutoxyoxetan-3-yl)phenyl)(5-(4-(trifluoromethyl)phenyl)hexahydropyrrolo[3,4-c]pyrrol-2(1H)-yl)methanone] were, in that order, 5%, 17% and 47%.
The corresponding values for `N#CC1(c2ccc(C(F)(F)F)cc2)CCN(C(=O)c2ccc(C3(O)COC3)cc2)CC1` [Example 116, 1-(4-(3-hydroxyoxetan-3-yl)benzoyl)-4-(4-(trifluoromethyl)phenyl)piperidine-4-carbonitrile] are 7%, 35% and 98%.
`O=C(Nc1ccc(C2(O)COC2)cc1)N1CC2CN(c3ccc(C(F)(F)F)cc3)CC2C1` (stereo not drawn) [Example 75, N-(4-(3-hydroxyoxetan-3-yl)phenyl)-5-(4-(trifluoromethyl)phenyl) hexahydropyrrolo[3,4-c]pyrrole-2(1H)-carboxamide]: the “% increase in LDL Uptake” value (1 μM test compound) came out at 20%, the “% increase in LDL Uptake” value (10 μM test compound) is 38% and the “% increase in LDL Uptake” value (30 μM test compound) stood at 27%.
The corresponding values for `O=C(c1ccc(C2(O)COC2)cc1)N1CCC(c2ccc(OC(F)(F)F)cc2)CC1` [Example 22, (4-(3-hydroxyoxetan-3-yl)phenyl)(4-(4-(trifluoromethoxy)phenyl)piperidin-1-yl)methanone] are 0%, 19% and 14%.
The like results for `CCOC1(c2ccc(C(=O)N3CCC(c4ccc(C(F)(F)F)c(F)c4)CC3)cc2)COC1` [Example 42, (4-(3-ethoxyoxetan-3-yl)phenyl)(4-(3-fluoro-4-(trifluoromethyl)phenyl)piperidin-1-yl)methanone] were, in that order, 20%, 25% and 4%.
The like results for `COC1(c2cccc(C(=O)N3CCN(c4ccc(C(F)(F)F)cn4)CC3)c2)COC1` [Example 221, (3-(3-methoxyoxetan-3-yl)phenyl)(4-(5-(trifluoromethyl)pyridin-2-yl)piperazin-1-yl)methanone] were, in that order, 0%, 28% and 66%.
Consider `O=C(c1cccc(C2(O)COC2)c1)N1CC2=C(C1)CN(c1ccc(C(F)(F)F)cc1)C2` [Example 96, (3-(3-hydroxyoxetan-3-yl)phenyl)(5-(4-(trifluoromethyl)phenyl)-3,4,5,6-tetrahydropyrrolo[3,4-c]pyrrol-2(1H)-yl)methanone], for which the “% increase in LDL Uptake” value stood at 0% (1 μM test compound), 28% (10 μM test compound) and 75% (30 μM test compound).
Consider `COC1(c2cccc(C(=O)N3CC4CN(c5ccc(C(F)(F)F)cn5)CC4C3)c2)COC1` (stereo not drawn) [Example 208, (3-(3-methoxyoxetan-3-yl)phenyl)(5-(5-(trifluoromethyl)pyridin-2-yl)hexahydropyrrolo[3,4-c]pyrrol-2 (1H)-yl)methanone], for which the “% increase in LDL Uptake” value was 56% (1 μM test compound), 14% (10 μM test compound) and 189% (30 μM test compound).
The like results for `O=C(c1cccc(C2(O)COC2)c1)N1CCCC(c2ccc(C(F)(F)F)cc2)C1` (stereo not drawn) [Example 48, (3-(3-hydroxyoxetan-3-yl)phenyl)(3-(4-(trifluoromethyl)phenyl)piperidin-1-yl)methanone] were, in that order, 0%, 142% and 234%.
